The test system of test [1] is patients with post-operative pain. Briefly: Clinical studies of analgesia in patients with post-operative pain. The class given is in vivo, human. The note with it: for sex difference in analgesia: women vs men, post-operative pain (FIG. 8, 9).
The target of the next test is T1, σ2 receptor (Homo sapiens, UniProt Q5BJF2).
T1 construct: MDS Pharma Services (contract laboratory that ran the assay)
The class given is binding. The note with it: for inhibition at 10 µM: read-out: Inhibition (%) Sigma2 (σ2).

Test [2] addresses T2, NOP (Homo sapiens, UniProt P41146). The class given is binding. To be noted: for binding to the NOP receptor (in words): 10 μM; for inhibition at 10 µM: read-out: Inhibition (%) Nociceptin/orphanin F/Q (NOP). Set-up: MDS Pharma Services (contract laboratory that ran the assay).
Test [3] concerns patients with post-operative pain. The note with it: cited from earlier work; for analgesia in earlier clinical studies (in words): patients with post-operative pain, literature of the applicants.
Test [4] has as its target T3, DOR (Homo sapiens, UniProt P41143). Briefly: biochemical. The class given is binding.
Test [5] addresses T2, NOP. Format: cell-based.
Test [6] addresses T4, MOR (Homo sapiens, UniProt P35372). Briefly: biochemical. The class given is binding.
For a further test, the target named is KOR (Homo sapiens, UniProt P41145). Briefly: biochemical. Format: binding.
The target in test [7] is T4, MOR. Briefly: biochemical. Format: binding. The source holds these as a separate data set.
Test [8] concerns the target T3, DOR. Briefly: biochemical. Format: binding. This is another data set of the same source.

A word on the Ki: it is a measure of affinity in units of concentration, obtained from inhibition or displacement.

Entries after “also recorded” stand apart in the source; their conditions may differ. Where a name gives a salt, the structure may show the parent alone. Read-outs that look alike come from different tables or passages of the source.

T3 sequence (P41143 whole entry): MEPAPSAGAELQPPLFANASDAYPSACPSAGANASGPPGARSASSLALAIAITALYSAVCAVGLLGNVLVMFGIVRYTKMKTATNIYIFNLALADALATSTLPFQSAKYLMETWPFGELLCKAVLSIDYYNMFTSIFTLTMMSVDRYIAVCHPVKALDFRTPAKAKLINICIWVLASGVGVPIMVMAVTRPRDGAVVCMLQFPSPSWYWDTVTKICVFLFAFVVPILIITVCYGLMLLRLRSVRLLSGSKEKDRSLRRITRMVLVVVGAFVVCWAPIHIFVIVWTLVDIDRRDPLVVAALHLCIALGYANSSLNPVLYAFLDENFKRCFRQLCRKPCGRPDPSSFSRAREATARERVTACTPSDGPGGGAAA
T1 sequence (Q5BJF2 whole entry, species assumed): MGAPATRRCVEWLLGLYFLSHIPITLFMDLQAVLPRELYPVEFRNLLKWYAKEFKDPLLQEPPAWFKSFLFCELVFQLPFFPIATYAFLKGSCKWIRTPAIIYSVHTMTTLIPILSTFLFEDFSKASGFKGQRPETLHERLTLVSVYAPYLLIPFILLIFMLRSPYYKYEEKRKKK
T4 sequence (P35372 whole entry): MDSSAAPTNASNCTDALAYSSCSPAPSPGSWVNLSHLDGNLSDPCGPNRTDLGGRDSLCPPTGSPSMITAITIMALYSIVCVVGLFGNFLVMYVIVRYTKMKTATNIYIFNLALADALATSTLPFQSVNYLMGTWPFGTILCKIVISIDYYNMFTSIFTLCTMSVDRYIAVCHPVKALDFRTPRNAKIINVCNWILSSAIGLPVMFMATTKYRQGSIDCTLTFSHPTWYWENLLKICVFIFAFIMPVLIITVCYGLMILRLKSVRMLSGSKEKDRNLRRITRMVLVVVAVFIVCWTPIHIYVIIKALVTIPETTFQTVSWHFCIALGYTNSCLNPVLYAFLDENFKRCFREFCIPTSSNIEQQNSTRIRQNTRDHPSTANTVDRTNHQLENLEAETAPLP
T2 sequence (P41146 whole entry): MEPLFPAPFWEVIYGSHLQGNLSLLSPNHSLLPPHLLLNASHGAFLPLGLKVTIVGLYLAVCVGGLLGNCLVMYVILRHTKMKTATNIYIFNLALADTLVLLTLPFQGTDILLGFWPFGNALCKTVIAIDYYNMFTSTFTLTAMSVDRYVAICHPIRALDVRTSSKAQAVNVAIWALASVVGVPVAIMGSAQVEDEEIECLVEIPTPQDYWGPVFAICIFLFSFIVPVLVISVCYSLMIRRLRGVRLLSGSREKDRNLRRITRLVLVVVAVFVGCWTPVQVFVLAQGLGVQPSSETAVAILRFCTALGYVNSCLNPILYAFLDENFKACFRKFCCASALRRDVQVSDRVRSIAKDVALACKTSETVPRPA
KOR, sequence (P41145 whole entry): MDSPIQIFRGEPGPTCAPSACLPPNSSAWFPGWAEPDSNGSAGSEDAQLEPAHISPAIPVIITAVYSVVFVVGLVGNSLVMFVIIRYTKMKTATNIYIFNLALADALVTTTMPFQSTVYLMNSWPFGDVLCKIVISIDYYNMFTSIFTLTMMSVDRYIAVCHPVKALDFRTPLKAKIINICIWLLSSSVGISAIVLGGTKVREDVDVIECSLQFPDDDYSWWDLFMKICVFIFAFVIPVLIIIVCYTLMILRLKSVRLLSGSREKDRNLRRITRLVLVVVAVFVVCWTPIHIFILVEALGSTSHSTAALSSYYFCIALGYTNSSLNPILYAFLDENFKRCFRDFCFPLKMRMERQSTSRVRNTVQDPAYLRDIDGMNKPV

`Oc1ccc2c(c1)[C@@]13CCCC[C@@]1(O)[C@@H](C2)N(CC1CCC1)CC3` [Butorphanol]: the “sex difference in analgesia” value in test [1] is “significantly great analgesia in women than in men; also recorded: significantly greater analgesia in females than in males”.

On to `Oc1ccc2c3c1O[C@H]1[C@@H](O)CC[C@@]4(O)[C@@H](C2)N(CC2CCC2)CC[C@]314` [Nalbuphine, Nalbuphine hydrochloride], for which the inhibition at 10 µM on σ2 receptor was 15%; on NOP [2] it was 12%. The “binding to the NOP receptor (in words)” value on NOP [2] (hydrochloride) was “binds to NOP receptors”. For the same compound, the “sex difference in analgesia” value is given as “significantly greater analgesia in females than in males” in [1] (hydrochloride) and “significantly great analgesia in women than in men” in test [1] (listed as nalbuphine, hydrochloride). The “time by which men reported increasing pain (anti-analgesia)” value in [3] (men, placebo controlled study (Gear 1999)) was approximately 90 min. Besides, in test [3], the “analgesia in earlier clinical studies (in words)” value (from here on “analgesia … (in words)”) is on record as “worse pain than those receiving placebo”.

Regarding `C=CCN1CC[C@]23c4c5ccc(O)c4O[C@H]2C(=O)CC[C@@]3(O)[C@H]1C5` [Naloxone, naloxone hydrochloride], the “binding to the σ2 receptor (in words)” value on σ2 receptor (10 μM) is reported as “does not bind to the σ2 receptor”. Moreover, the inhibition at 10 µM at σ2 receptor is -2%. Moreover, the “effect on nalbuphine anti-analgesia in males” value in test [1] (naloxone 0.4 mg in combination with nalbuphine, men (FIG. 10 left)) is reported as “abolished the anti-analgesic effect of nalbuphine in males resulting in significant analgesia”. Also, the “effect on nalbuphine analgesia in females” value in test [1] (naloxone 0.4 mg in combination with nalbuphine, women (FIG. 10 right)) is on record as “enhanced nalbuphine analgesia in females”. For the same compound, the “analgesia … (in words)” value in test [3] is “blocks anti-analgesia and produces enhanced and prolonged analgesia”.

For the compound `CC(C)=CCN1CCC2(C)c3cc(O)ccc3CC1C2C.CC(O)C(=O)O` (centres unmarked) [Pentazocine, Pentazocine lactate], the inhibition at 10 µM at σ2 receptor amounted to 81%. For the same compound, at NOP [2], the “binding to the NOP receptor (in words)” value is given as “binds to NOP receptors” and the inhibition at 10 µM amounted to 24%. The “sex difference in analgesia” value in [1] was “significantly great analgesia in women than in men; also recorded: significant difference in analgesia experience by females and males”.

Take `NCC(CC(=O)O)c1ccc(Cl)cc1` (centres unmarked) [baclofen]: the “effect on the analgesic effect of pentazocine” value in test [3] (oral, from three days prior to surgery, pentazocine 30 mg i.v. (Gordon 1995)) is given as “not significantly different from that of placebo”.

In the case of `CN(C)CCCN1c2ccccc2Sc2ccc(Cl)cc21` [chlorpromazine], the “analgesia … (in words)” value in test [3] is reported as “enhanced the analgesic effect of nalbuphine”.

In turn, `CN(C(=O)/C=C/c1ccoc1)[C@@H]1CCC2(O)C3Cc4ccc(O)c5c4[C@@]2(CCN3CC2CC2)[C@H]1O5` (some centres unmarked) [compound 27035, TRK-820 HCl] came in with a DOR on DOR [4] of 95. Further, the inhibition at 10 µM at DOR [4] (read-out: DOR mean % inhibition) came to 95.3%; on MOR [6] (read-out: MOR mean % inhibition), 93.8%; on KOR (read-out: KOR mean % inhibition) it was 90.5%. On NOP [5], the “NOP Tango Agonist” value is given as 3.5. On MOR [6], the MOR is 94. This compound also showed a KOR at KOR of 91. In addition, the inhibition constant (Ki) turned out to be 1.1 nM on MOR [7] and 42 nM at DOR [8].

As for `O=C(CCCN1CCC(O)(c2ccc(Cl)cc2)CC1)c1ccc(F)cc1` [haloperidol], in test [3], the “analgesia … (in words)” value is listed as “enhanced the analgesic effect of nalbuphine”.

Source of the values: patent US10167295B2 (priority 2013, dated 2019).
